# Data taken from patent US8889699B2, “5-fluorouracil derivative” (Delta-Fly Pharma, Inc., priority 2009, dated 2014).
# Read-outs that look alike come from different tables or passages of the source.
# What was measured:
# [1] = tested on: sarcoma 180 cells; assay: Inhibition of intracellular phosphorylation of 5-FU in cancer cells; format: cell-based, mouse; conditions: for inhibition at 10 µM / inhibition at 100 µM: Mus musculus, Sarcoma-180, 0.5 h
# Protocol: (§1) • (a) Test liquid preparation 1: Compound I-2 or I-10 of the present invention was dissolved to a concentration of 1 mM in cold physiological saline. The resulting product was further diluted 10-fold with physiological saline, yielding a 100-μM solution. • (b) Test liquid preparation 2: As an OPRT inhibitor, which inhibits the phosphorylation of 5-FU, citrazinic acid (Citra.A.) was dissolved to a concentration of 1 mM in cold physiological saline, and further diluted 10-fold with physiological saline, yielding a 100-μM solution. • (c) Preparation of cancer cell suspension: Ascites-type sarcoma 180 cells were preliminarily transplanted intraperitoneally into an ICR mouse and proliferated therein for use in the test as raw (intact) cells. The proliferated cells were isolated and then washed with physiological saline. […] Immediately after the completion of the reaction, 4 mL of a cold Hanks solution was added to the reaction solution, and the cells were washed and separated by centrifugation. After this procedure was repeated twice, 2 mL of a cold 5% trichloroacetic acid (TCA) solution was added to the cell pellet to disrupt the cells, and 5-FU and its nucleotide metabolites were extracted. Subsequently, a portion of the nucleic acid extract was applied to a silica gel 60F254 plate and developed with a mixed liquid comprising chloroform-methanol-acetic acid (17:3:1) to isolate the nucleotide moiety. The radioactivity thereof was measured and the concentration of 5-FU phosphorylation was measured.
# as §1, with “1: Compounds I-9, I-11, I-12, and I-13” for “1: Compound I-2 or I-10”, “invention were separately” for “invention was”, “saline. Each of the” for “saline. The”, “resulting products” for “resulting product”, “acid” for “acid (Citra.A.)”
# [2] = target: T1, DPD (Rattus norvegicus, UniProt O89000); assay: DPD inhibitory action in vitro (enzyme reaction, tritium-labeled 5-FU as substrate); format: biochemical; conditions: Conc. 0.02 μM; Table 5
# T1 construct: the obtained supernatant was used as a DPD enzyme solution or an OPRT enzyme solution; from tissue; host or cells: liver of 8-week old SD rat; 105,000 g supernatant of homogenate
# T1 sequence (O89000 1-1025): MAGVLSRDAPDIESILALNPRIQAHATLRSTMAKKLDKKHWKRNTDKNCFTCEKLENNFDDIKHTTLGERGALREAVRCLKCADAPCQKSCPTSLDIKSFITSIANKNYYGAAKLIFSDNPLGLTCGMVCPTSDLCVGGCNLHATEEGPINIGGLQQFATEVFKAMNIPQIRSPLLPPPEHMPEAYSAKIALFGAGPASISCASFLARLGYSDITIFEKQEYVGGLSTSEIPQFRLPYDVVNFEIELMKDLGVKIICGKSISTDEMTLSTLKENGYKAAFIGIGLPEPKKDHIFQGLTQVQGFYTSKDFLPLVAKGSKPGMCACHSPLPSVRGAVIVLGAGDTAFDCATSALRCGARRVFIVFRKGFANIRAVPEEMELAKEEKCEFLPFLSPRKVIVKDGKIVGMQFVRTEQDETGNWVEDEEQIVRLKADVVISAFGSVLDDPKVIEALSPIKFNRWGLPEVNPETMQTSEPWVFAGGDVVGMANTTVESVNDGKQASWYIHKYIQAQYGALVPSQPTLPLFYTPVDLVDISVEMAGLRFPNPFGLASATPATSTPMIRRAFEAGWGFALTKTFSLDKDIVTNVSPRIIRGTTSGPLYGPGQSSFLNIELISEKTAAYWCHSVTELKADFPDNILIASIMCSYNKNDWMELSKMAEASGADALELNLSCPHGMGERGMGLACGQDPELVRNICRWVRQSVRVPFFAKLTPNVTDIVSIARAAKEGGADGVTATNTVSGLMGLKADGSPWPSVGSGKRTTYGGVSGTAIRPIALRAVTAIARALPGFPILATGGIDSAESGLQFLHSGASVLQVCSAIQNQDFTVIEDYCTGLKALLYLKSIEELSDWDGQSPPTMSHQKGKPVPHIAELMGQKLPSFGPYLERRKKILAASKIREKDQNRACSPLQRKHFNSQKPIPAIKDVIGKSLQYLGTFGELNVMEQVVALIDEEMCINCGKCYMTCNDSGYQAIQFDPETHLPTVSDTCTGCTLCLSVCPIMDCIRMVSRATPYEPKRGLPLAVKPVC
# [3] = Conc. 10 μM, 30 min. Incubation, 5-FU 2 μM, Table 6
# [4] = Conc. 10 μM, 30 min, Table 3 run with control 60.93
# [5] = Conc. 10 μM, 30 min, Table 3 run with control 63.32
# [6] = Conc. 100 μM, 30 min. Incubation, 5-FU 2 μM, Table 6
# [7] = Conc. 100 μM, 30 min, Table 3 run with control 60.93
# [8] = Conc. 100 μM, 30 min, Table 3 run with control 63.32
# [9] = Conc. 10 μM, 30 min. Incubation, 5-FU 2 μM, Table 6, read-out: Inhibition (%) of phosphorylation of 5-FU
# [10] = Conc. 10 μM, 30 min, Table 3 run with control 60.93, read-out: % Inhibition of 5-FU phosphorylation
# [11] = Conc. 10 μM, 30 min, Table 3 run with control 63.32, read-out: % Inhibition of 5-FU phosphorylation
# [12] = Conc. 100 μM, 30 min. Incubation, 5-FU 2 μM, Table 6, read-out: Inhibition (%) of phosphorylation of 5-FU
# [13] = Conc. 100 μM, 30 min, Table 3 run with control 60.93, read-out: % Inhibition of 5-FU phosphorylation
# [14] = Conc. 100 μM, 30 min, Table 3 run with control 63.32, read-out: % Inhibition of 5-FU phosphorylation
# [15] = concentration of 100 μM, reaction for 30 minutes, read-out: percent inhibition of intracellular phosphorylation of 5-FU
# [16] = concentration of 10 μM, reaction for 30 minutes, read-out: percent inhibition of intracellular phosphorylation of 5-FU
Compound,"RNA Fraction [1, 3] [pmol/1 × 10^7 cells]","F-nucleotides [1, 4] [pmol/1 × 10^7 cells]","F-nucleotides [1, 5] [pmol/1 × 10^7 cells]","RNA Fraction [1, 6] [pmol/1 × 10^7 cells]","F-nucleotides [1, 7] [pmol/1 × 10^7 cells]","F-nucleotides [1, 8] [pmol/1 × 10^7 cells]","inhibition at 10 µM [1, 9] [%]","inhibition at 10 µM [1, 10] [%]","inhibition at 10 µM [1, 11] [%]","inhibition at 100 µM [1, 12] [%]","inhibition at 100 µM [1, 13] [%]","inhibition at 100 µM [1, 14] [%]","inhibition at 100 µM [1, 15] [%]","inhibition at 10 µM [1, 16] [%]",DPD Inhibitory Activity: Activity [2] [nmol/mL/min],inhibition at 0.02 µM [2] [%]
"O=C(O)c1cc(O)nc(O)c1 [Citra. A., citrazinic acid, reference compound]",62.19,55.78,62.19,60.13,51.72,60.13,1.8,8.5,1.8,5,15.1,5.1,5 to 15,,,
"CCOCn1cc(F)c(=O)n(C(=O)c2cccc(C(=O)Oc3cc(OC(=O)c4cc(O)nc(O)c4)c(Cl)cn3)c2)c1=O [Compound I-2, 3-{3-[4-(2,6-dihydroxyisonicotinoyloxy)-5-chloro-2-pyridyloxycarbonyl]benzoyl}-1-ethoxymethyl-5-fluorouracil]",,47.26,,,28.88,,,22.4,,,52.6,,50 to 60,20 to 30,,
"CCOCn1cc(F)c(=O)n(C(=O)c2cccc(C(=O)Oc3cc(OC(=O)c4cc(OC(=O)C5CCCC5)nc(OC(=O)C5CCCC5)c4)c(Cl)cn3)c2)c1=O [Compound I-9, 3-{3-[4-(2,6-dicyclopentanecarbonyloxyisonicotinoyloxy)-5-chloro-2-pyridyloxycarbonyl]benzoyl}-1-ethoxymethyl-5-fluorouracil]",27.42,,,23.61,,,56.7,,,62.7,,,56 to 63,35 to 57,,
"CCOCn1cc(F)c(=O)n(C(=O)c2cccc(C(=O)Oc3cc(OC(=O)c4cc(OC(C)=O)nc(OC(C)=O)c4)c(Cl)cn3)c2)c1=O [Compound I-10, 3-{3-[4-(2,6-diacetyloxyisonicotinoyloxy)-5-chloro-2-pyridyloxycarbonyl]benzoyl}-1-ethoxymethyl-5-fluorouracil]",,,40.71,,,27.62,,,35.7,,,56.4,50 to 60,20 to 30,,
"CCOCn1cc(F)c(=O)n(C(=O)c2cccc(C(=O)Oc3cc(OC(=O)c4cc(OC(=O)CC)nc(OC(=O)CC)c4)c(Cl)cn3)c2)c1=O [Compound I-11, 3-{3-[4-(2,6-dipropionyloxyisonicotinoyloxy)-5-chloro-2-pyridyloxycarbonyl]benzoyl}-1-ethoxymethyl-5-fluorouracil]",40.71,,,27.62,,,35.7,,,56.4,,,56 to 63,35 to 57,0.705,0
